Test results: PubChem BioAssay AID1963967 (Molecular Pharmacology Branch, DTP, NCI, 2024)

Tested on: 855422-203-R-J1-PDC spheroids with HUVEC/MSC, viability
Experiment: Anticancer human tumor 855422-203-R-J1-PDC patient-derived bladder carcinoma cell line growth inhibition [PI3K]
Details: for IC50: curve of first compound; for viability, T/C: stronger effect = lower value
In short: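 Spheroid viability read-out. Co-cultures contained the tumor line plus HUVEC and human MSCs. Each agent was paired with a PI3K inhibitor (inavolisib, alpelisib, duvelisib, copanlisib) across half-log dilutions starting at clinical Cmax, or at 10 microM when Cmax was unknown.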
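Also: agents incubated with spheroids for one week before read-out.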
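For viability, T/C in this document: 100% = DMSO vehicle-treated control wells.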

CNC(=O)c1ccc(N2C(=S)N(c3ccc(C#N)c(C(F)(F)F)c3)C(=O)C2(C)C)cc1F + COc1c(OCCCN2CCOCC2)ccc2c3n(c(=NC(=O)c4cnc(N)nc4)nc12)CCN3
IC50 (second compound 0.00316 µM): > 10000 nM
IC50 (second compound 0.01 µM): > 10000 nM
IC50 (second compound 0.0316 µM): > 10000 nM
IC50 (second compound 0.1 µM): < 31.6 nM
IC50 (second compound 0.316 µM): < 31.6 nM
IC50 (second compound 1 µM): < 31.6 nM
viability, T/C (second compound 0.00316 µM, first compound 0.0316 µM): 94.3%
viability, T/C (second compound 0.00316 µM, first compound 0.1 µM): 79.5%
viability, T/C (second compound 0.00316 µM, first compound 0.316 µM): 90.7%
viability, T/C (second compound 0.00316 µM, first compound 1 µM): 83.1%
viability, T/C (second compound 0.00316 µM, first compound 3.16 µM): 71.5%
viability, T/C (second compound 0.00316 µM, first compound 10 µM): 66.5%
viability, T/C (second compound 0.01 µM, first compound 0.0316 µM): 74%
viability, T/C (second compound 0.01 µM, first compound 0.1 µM): 85.1%
viability, T/C (second compound 0.01 µM, first compound 0.316 µM): 74.5%
viability, T/C (second compound 0.01 µM, first compound 1 µM): 76.1%
viability, T/C (second compound 0.01 µM, first compound 3.16 µM): 81.4%
viability, T/C (second compound 0.01 µM, first compound 10 µM): 68.5%
viability, T/C (second compound 0.0316 µM, first compound 0.0316 µM): 63.4%
viability, T/C (second compound 0.0316 µM, first compound 0.1 µM): 69.3%
viability, T/C (second compound 0.0316 µM, first compound 0.316 µM): 70.8%
viability, T/C (second compound 0.0316 µM, first compound 1 µM): 61.2%
viability, T/C (second compound 0.0316 µM, first compound 3.16 µM): 62.4%
viability, T/C (second compound 0.0316 µM, first compound 10 µM): 58.2%
viability, T/C (second compound 0.1 µM, first compound 0.0316 µM): 30.2%
viability, T/C (second compound 0.1 µM, first compound 0.1 µM): 32.3%
viability, T/C (second compound 0.1 µM, first compound 0.316 µM): 30.2%
viability, T/C (second compound 0.1 µM, first compound 1 µM): 32.9%
viability, T/C (second compound 0.1 µM, first compound 3.16 µM): 34.5%
viability, T/C (second compound 0.1 µM, first compound 10 µM): 29.4%
viability, T/C (second compound 0.316 µM, first compound 0.0316 µM): 11.5%
viability, T/C (second compound 0.316 µM, first compound 0.1 µM): 10.8%
viability, T/C (second compound 0.316 µM, first compound 0.316 µM): 8.16%
viability, T/C (second compound 0.316 µM, first compound 1 µM): 12.7%
viability, T/C (second compound 0.316 µM, first compound 3.16 µM): 9.19%
viability, T/C (second compound 0.316 µM, first compound 10 µM): 10.1%
viability, T/C (second compound 1 µM, first compound 0.0316 µM): 4.1%
viability, T/C (second compound 1 µM, first compound 0.1 µM): 4.74%
viability, T/C (second compound 1 µM, first compound 0.316 µM): 4.6%
viability, T/C (second compound 1 µM, first compound 1 µM): 4.66%
viability, T/C (second compound 1 µM, first compound 3.16 µM): 5.91%
viability, T/C (second compound 1 µM, first compound 10 µM): 4.28%

Cn1cnc2c(F)c(Nc3ccc(Br)cc3Cl)c(C(=O)NOCCO)cc21 + COc1c(OCCCN2CCOCC2)ccc2c3n(c(=NC(=O)c4cnc(N)nc4)nc12)CCN3
IC50 (second compound 0.00316 µM): 2440 nM
IC50 (second compound 0.01 µM): 1570 nM
IC50 (second compound 0.0316 µM): 283 nM
IC50 (second compound 0.1 µM): < 9.49 nM
IC50 (second compound 0.316 µM): < 9.49 nM
IC50 (second compound 1 µM): < 9.49 nM
viability, T/C (second compound 0.00316 µM, first compound 0.00949 µM): 94.1%
viability, T/C (second compound 0.00316 µM, first compound 0.03 µM): 88.1%
viability, T/C (second compound 0.00316 µM, first compound 0.0949 µM): 91.4%
viability, T/C (second compound 0.00316 µM, first compound 0.3 µM): 93.5%
viability, T/C (second compound 0.00316 µM, first compound 0.949 µM): 90.1%
viability, T/C (second compound 0.00316 µM, first compound 3 µM): 41.2%
viability, T/C (second compound 0.01 µM, first compound 0.00949 µM): 73.6%
viability, T/C (second compound 0.01 µM, first compound 0.03 µM): 90.6%
viability, T/C (second compound 0.01 µM, first compound 0.0949 µM): 82%
viability, T/C (second compound 0.01 µM, first compound 0.3 µM): 85.9%
viability, T/C (second compound 0.01 µM, first compound 0.949 µM): 66.2%
viability, T/C (second compound 0.01 µM, first compound 3 µM): 29.1%
viability, T/C (second compound 0.0316 µM, first compound 0.00949 µM): 64%
viability, T/C (second compound 0.0316 µM, first compound 0.03 µM): 64%
viability, T/C (second compound 0.0316 µM, first compound 0.0949 µM): 60.8%
viability, T/C (second compound 0.0316 µM, first compound 0.3 µM): 47.1%
viability, T/C (second compound 0.0316 µM, first compound 0.949 µM): 34.6%
viability, T/C (second compound 0.0316 µM, first compound 3 µM): 12.7%
viability, T/C (second compound 0.1 µM, first compound 0.00949 µM): 30.8%
viability, T/C (second compound 0.1 µM, first compound 0.03 µM): 26.1%
viability, T/C (second compound 0.1 µM, first compound 0.0949 µM): 22.2%
viability, T/C (second compound 0.1 µM, first compound 0.3 µM): 21.8%
viability, T/C (second compound 0.1 µM, first compound 0.949 µM): 10.2%
viability, T/C (second compound 0.1 µM, first compound 3 µM): 2.98%
viability, T/C (second compound 0.316 µM, first compound 0.00949 µM): 8.62%
viability, T/C (second compound 0.316 µM, first compound 0.03 µM): 6.53%
viability, T/C (second compound 0.316 µM, first compound 0.0949 µM): 5.43%
viability, T/C (second compound 0.316 µM, first compound 0.3 µM): 4.82%
viability, T/C (second compound 0.316 µM, first compound 0.949 µM): 2.2%
viability, T/C (second compound 0.316 µM, first compound 3 µM): 0.34%
viability, T/C (second compound 1 µM, first compound 0.00949 µM): 3.01%
viability, T/C (second compound 1 µM, first compound 0.03 µM): 3.36%
viability, T/C (second compound 1 µM, first compound 0.0949 µM): 1.65%
viability, T/C (second compound 1 µM, first compound 0.3 µM): 2.9%
viability, T/C (second compound 1 µM, first compound 0.949 µM): 0.38%
viability, T/C (second compound 1 µM, first compound 3 µM): 0.99%
